Results: ChEMBL document CHEMBL4507268 (2021)

Columns and labels:
[1] = target: T1, Serine/threonine-protein kinase ICK (Homo sapiens) (UniProt Q9UPZ9); details: Compound concentration 1.0 uM
T1 sequence (whole entry): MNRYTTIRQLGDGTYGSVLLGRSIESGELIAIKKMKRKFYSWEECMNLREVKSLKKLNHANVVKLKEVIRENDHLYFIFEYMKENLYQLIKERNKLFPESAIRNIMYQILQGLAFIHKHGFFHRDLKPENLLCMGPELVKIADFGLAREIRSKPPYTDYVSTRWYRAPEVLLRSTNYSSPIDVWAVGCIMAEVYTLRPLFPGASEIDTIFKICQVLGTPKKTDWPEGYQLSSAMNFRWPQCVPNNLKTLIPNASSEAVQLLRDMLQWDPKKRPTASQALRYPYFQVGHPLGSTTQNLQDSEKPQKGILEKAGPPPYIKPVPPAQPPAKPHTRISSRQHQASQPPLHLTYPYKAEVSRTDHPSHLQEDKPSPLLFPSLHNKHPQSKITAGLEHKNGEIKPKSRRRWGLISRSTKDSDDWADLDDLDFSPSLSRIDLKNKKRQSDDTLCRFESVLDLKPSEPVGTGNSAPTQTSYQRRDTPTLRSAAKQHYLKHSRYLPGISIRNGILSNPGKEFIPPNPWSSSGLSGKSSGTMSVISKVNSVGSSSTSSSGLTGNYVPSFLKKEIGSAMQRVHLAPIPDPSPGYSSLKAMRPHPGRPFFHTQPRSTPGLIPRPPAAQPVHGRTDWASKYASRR

[2] = target: Angiopoietin-1 receptor (Homo sapiens) (UniProt Q02763); details: Compound concentration 1.0 uM
[3] = target: Tyrosine-protein kinase Fes/Fps (Homo sapiens) (UniProt P07332); details: Compound concentration 1.0 uM
[4] = target: Serine/threonine-protein kinase Nek7 (Homo sapiens) (UniProt Q8TDX7); details: Compound concentration 1.0 uM
[5] = target: Sodium-dependent dopamine transporter (Homo sapiens) (UniProt Q01959); details: Compound concentration 10.0 uM
[6] = target: Serine/threonine-protein kinase MRCK alpha (Homo sapiens) (UniProt Q5VT25); details: Compound concentration 1.0 uM
[7] = target: T2, cGMP-dependent protein kinase 1 (Homo sapiens) (UniProt Q13976); details: Compound concentration 1.0 uM
T2 sequence (whole entry): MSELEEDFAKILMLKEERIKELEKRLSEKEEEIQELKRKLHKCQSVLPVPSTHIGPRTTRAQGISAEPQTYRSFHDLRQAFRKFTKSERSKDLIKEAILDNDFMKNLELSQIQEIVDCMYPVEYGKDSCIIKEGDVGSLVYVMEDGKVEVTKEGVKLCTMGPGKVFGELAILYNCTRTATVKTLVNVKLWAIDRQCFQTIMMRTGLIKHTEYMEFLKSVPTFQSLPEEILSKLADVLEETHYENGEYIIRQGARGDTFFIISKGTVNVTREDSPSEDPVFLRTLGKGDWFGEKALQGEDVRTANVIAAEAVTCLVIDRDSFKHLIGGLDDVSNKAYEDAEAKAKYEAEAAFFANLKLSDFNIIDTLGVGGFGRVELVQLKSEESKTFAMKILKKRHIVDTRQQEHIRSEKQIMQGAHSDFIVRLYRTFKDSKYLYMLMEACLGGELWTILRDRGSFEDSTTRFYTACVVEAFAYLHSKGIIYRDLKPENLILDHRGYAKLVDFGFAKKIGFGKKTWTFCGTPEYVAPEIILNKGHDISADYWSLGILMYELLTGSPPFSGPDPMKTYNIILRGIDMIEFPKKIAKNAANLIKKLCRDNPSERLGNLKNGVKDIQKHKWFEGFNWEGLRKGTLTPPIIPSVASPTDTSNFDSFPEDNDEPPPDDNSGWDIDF

[8] = target: Cyclin-dependent kinase 2/cyclin E (Homo sapiens) (UniProt P24864+P24941+O96020); details: Compound concentration 1.0 uM
[9] = target: Ephrin type-A receptor 7 (Homo sapiens) (UniProt Q15375); details: Compound concentration 1.0 uM
Chain of Ephrin type-A receptor 7 (Homo sapiens) (Q15375 28-998 limits assumed): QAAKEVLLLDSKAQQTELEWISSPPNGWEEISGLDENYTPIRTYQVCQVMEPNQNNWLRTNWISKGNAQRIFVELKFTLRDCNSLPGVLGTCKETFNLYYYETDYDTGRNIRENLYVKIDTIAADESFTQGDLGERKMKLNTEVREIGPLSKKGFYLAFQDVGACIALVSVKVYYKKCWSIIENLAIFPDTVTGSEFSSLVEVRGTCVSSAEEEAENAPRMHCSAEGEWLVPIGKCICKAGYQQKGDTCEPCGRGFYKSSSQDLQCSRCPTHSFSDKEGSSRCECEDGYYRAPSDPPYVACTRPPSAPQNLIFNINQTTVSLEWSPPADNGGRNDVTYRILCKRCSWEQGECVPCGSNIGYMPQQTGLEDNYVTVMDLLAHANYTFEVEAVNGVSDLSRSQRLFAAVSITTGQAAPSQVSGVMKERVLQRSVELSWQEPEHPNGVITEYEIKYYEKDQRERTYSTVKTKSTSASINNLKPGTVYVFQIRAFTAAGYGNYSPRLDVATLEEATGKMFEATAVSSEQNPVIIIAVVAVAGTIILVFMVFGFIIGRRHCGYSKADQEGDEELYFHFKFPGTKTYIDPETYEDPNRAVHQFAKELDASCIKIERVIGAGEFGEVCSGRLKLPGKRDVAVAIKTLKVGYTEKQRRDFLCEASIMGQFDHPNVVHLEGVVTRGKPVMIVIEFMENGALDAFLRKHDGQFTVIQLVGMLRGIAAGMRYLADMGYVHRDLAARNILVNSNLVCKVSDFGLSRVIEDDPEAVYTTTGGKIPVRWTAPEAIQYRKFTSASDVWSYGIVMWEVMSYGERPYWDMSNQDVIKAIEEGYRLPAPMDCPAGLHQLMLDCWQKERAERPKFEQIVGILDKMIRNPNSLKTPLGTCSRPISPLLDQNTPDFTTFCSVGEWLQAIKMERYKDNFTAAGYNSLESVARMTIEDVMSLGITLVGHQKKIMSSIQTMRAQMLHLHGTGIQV

Chain of Serine/threonine-protein kinase MRCK alpha (Homo sapiens) (Q5VT25 whole entry): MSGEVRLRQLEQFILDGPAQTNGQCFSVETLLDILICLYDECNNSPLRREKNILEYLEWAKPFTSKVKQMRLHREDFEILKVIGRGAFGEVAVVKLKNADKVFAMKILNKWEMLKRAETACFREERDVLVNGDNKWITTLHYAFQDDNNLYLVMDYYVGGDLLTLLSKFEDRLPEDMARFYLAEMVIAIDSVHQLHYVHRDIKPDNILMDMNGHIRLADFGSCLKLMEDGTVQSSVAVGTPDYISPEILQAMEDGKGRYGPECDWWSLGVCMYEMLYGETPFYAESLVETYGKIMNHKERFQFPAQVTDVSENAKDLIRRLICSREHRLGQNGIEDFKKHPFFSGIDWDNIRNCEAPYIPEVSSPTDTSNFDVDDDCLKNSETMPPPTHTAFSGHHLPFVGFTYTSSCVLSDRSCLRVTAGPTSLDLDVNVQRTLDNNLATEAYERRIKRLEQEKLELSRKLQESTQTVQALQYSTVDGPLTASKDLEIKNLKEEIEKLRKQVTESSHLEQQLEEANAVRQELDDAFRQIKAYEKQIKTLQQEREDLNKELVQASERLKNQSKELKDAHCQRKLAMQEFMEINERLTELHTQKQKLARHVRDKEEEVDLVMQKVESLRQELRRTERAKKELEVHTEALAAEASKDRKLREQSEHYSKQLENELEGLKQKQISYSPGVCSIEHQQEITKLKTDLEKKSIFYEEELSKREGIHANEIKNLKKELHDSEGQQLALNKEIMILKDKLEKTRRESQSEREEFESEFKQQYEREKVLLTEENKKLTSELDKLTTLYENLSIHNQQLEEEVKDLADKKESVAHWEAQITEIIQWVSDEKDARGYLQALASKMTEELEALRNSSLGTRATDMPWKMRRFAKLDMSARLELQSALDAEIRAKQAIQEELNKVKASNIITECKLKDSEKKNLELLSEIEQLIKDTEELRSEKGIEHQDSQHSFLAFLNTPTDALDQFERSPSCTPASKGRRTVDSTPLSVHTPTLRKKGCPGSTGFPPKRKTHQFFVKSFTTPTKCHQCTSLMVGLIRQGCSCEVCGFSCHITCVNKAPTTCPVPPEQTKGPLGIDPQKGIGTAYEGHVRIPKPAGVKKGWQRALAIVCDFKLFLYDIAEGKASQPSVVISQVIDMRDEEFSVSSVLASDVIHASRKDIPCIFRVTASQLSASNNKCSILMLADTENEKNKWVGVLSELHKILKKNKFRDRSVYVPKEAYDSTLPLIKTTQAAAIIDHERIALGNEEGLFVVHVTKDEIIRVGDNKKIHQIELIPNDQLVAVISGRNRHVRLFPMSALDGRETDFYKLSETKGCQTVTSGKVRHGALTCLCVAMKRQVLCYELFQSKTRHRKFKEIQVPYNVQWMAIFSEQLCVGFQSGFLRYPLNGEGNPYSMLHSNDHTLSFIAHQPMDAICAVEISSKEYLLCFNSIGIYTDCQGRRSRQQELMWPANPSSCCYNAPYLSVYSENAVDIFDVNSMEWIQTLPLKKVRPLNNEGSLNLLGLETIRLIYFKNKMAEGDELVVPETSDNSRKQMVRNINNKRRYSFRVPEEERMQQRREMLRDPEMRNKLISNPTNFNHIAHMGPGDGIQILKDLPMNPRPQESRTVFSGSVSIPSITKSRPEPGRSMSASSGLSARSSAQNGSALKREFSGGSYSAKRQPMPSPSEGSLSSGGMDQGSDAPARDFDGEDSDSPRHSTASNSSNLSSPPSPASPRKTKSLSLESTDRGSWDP
Chain of Angiopoietin-1 receptor (Homo sapiens) (Q02763 whole entry): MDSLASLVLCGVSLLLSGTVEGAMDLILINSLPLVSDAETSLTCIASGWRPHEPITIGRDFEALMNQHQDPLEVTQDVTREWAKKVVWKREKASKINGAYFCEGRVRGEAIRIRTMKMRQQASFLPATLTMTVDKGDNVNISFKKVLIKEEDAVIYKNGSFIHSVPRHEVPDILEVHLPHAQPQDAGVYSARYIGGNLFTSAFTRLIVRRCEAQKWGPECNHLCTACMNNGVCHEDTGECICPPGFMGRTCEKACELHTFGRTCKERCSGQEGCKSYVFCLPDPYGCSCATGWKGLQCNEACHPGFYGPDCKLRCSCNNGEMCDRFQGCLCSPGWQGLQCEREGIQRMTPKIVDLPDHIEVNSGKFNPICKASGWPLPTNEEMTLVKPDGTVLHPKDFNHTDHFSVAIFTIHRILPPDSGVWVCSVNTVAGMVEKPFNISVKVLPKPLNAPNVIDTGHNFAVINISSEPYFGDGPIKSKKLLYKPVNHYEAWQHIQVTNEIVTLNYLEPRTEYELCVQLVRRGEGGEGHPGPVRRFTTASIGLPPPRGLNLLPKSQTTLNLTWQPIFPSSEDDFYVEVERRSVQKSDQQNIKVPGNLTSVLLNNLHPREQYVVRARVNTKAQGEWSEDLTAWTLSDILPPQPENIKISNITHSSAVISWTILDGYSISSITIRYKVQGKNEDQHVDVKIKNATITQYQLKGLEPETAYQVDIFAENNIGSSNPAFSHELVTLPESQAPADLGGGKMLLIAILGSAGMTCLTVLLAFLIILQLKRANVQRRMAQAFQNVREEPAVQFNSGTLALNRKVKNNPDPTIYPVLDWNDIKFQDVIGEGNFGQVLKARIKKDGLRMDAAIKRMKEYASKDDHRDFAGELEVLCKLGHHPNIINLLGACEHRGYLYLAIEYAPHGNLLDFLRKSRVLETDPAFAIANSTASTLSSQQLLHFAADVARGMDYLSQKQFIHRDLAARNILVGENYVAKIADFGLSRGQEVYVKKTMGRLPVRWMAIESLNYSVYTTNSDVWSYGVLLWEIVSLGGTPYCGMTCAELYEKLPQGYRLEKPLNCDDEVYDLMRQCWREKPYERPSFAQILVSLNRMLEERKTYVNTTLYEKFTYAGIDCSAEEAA
Chain of Tyrosine-protein kinase Fes/Fps (Homo sapiens) (P07332 whole entry): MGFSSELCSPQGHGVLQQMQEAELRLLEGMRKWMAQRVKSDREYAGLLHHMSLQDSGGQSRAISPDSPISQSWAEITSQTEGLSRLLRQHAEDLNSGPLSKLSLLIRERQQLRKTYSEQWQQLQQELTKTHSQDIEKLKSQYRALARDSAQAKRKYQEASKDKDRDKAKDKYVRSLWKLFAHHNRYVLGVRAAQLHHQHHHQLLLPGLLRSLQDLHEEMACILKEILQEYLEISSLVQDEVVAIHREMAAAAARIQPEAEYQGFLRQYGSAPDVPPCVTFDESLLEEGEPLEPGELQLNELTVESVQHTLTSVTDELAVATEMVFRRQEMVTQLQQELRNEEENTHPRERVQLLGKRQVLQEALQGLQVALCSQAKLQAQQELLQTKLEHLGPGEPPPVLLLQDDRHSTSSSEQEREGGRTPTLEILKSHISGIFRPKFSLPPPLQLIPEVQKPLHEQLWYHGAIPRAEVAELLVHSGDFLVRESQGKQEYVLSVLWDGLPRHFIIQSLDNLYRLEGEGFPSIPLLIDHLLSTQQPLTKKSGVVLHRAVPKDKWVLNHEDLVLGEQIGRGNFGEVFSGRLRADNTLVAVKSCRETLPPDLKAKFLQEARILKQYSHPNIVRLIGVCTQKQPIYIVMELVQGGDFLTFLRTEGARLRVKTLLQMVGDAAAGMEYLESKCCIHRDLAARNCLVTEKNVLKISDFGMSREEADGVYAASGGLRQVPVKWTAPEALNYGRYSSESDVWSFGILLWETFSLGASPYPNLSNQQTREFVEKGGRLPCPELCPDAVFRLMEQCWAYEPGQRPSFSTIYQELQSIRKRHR
Chain of Serine/threonine-protein kinase Nek7 (Homo sapiens) (Q8TDX7 whole entry, looked up): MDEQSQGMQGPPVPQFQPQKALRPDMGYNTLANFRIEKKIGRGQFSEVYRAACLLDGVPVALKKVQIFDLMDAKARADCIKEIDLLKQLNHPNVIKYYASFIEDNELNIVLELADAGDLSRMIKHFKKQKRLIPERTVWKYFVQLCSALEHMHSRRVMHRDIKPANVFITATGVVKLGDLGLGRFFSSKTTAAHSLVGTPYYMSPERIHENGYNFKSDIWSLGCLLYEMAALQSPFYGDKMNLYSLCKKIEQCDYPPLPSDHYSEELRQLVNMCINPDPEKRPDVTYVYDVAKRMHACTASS

CN1CCN(c2cnc3c(C4CCN(C(=O)c5ccc(OC(F)(F)F)cc5N)CC4)ncnc3c2)CC1 [BAY-885]
inactive: % residual kinase activity [1] 93% | % residual kinase activity [2] 84% | % residual kinase activity [3] 108% | % residual kinase activity [4] 106% | inhibition [5] -4.2% | % residual kinase activity [6] 111% | % residual kinase activity [7] 122% | % residual kinase activity [8] 99% | % residual kinase activity [9] 92%
